The target of the assay is T1, uroporphyrinogen decarboxylase (UROD) (Homo sapiens, UniProt P06132).
T1 construct: recombinant UROD (GenBank BC001778) with 5'-histidine tag and thrombin cleavage site
T1 sequence (P06132 1-367): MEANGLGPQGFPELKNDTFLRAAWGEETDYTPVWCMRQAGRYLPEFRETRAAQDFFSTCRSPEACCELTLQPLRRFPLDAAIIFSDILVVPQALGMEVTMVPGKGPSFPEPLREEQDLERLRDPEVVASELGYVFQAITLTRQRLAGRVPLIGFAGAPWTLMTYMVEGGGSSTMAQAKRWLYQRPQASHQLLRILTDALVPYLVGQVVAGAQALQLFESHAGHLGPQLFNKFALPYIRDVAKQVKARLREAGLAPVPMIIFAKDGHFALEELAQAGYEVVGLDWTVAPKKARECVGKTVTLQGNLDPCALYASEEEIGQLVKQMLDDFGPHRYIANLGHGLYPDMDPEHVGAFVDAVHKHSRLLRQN
Description: Recombinant UROD enzyme assay with RP-HPLC fluorescence detection of uroporphyrin/coproporphyrin ([…] UROD, […] uroporphyrinogen). The format is biochemical.

Broadly, the IC50 is the concentration at which inhibition is half-maximal.

Regarding `CC1=C(CCC(=O)O)C2=Cc3[nH]c(c(C)c3CCC(=O)O)C(C)(C)C3=NC(=Cc4[nH]c(c(C)c4CCC(=O)O)C(C)(C)C1=N2)C(CCC(=O)O)=C3C` [PI-16], the IC50 turned out to be 9.9 µM.
